Measured values from paper PMC6767909 (Journal of medicinal chemistry, 2019).
Where two headings read alike, the source gives them in different places. Each block holds one compound with its values, some of them ahead of it.

Assays:
[1] = target: T1, human GIVA cPLA2 (Homo sapiens, UniProt P47712); assay: lipidomics-based mixed micelle assay, GIVA cPLA2; format: biochemical; details: for GIVA cPLA2 XI(50): separated trans/cis diastereomers, lipidomics-based assay
T1 sequence (P47712 1-749): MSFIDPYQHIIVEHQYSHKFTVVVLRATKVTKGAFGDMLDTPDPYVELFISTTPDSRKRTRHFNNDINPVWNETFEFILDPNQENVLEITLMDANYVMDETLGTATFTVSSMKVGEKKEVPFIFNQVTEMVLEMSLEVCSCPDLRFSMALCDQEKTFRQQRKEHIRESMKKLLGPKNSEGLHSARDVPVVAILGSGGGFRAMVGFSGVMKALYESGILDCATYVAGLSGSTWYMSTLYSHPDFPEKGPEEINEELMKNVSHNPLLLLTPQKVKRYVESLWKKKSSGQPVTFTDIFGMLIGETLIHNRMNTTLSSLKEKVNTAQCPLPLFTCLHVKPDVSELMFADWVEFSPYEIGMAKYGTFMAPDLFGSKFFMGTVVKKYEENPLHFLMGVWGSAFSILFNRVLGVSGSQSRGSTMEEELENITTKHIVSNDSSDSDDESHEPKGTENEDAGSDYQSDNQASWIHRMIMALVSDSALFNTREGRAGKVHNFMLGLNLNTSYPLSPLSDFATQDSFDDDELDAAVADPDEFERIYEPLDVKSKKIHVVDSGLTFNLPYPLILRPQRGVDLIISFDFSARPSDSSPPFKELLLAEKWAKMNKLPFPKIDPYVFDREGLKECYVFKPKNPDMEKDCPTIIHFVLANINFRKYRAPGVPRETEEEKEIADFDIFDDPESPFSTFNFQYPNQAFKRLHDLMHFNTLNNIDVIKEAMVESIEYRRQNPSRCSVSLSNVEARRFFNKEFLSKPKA

[2] = target: T2, recombinant human GVIA iPLA2 (Homo sapiens, UniProt O60733); assay: lipidomics-based mixed micelle assay, GVIA iPLA2; format: biochemical
T2 sequence (O60733 1-806): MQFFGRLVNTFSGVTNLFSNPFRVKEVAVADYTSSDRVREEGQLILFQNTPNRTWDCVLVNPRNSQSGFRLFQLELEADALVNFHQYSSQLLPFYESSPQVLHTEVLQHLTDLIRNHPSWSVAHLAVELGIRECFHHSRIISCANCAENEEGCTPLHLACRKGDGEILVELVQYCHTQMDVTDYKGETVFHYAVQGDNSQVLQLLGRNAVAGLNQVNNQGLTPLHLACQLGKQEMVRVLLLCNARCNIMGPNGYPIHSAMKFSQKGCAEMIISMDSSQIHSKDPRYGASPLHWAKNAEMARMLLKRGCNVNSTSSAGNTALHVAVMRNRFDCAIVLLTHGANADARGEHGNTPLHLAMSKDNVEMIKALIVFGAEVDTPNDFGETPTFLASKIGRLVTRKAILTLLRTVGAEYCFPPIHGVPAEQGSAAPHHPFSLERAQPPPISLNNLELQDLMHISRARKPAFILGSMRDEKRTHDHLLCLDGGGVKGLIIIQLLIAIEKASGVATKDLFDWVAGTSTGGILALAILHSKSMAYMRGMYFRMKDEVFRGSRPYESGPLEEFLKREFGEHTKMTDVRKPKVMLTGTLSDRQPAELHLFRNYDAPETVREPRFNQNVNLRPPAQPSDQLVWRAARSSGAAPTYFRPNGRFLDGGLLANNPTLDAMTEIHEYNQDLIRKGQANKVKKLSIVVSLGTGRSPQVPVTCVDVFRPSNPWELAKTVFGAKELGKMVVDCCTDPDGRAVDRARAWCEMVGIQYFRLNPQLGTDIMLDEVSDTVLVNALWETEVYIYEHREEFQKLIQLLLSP

[3] = system: INS-1 cells; format: cell-based
[4] = target: T2, recombinant human GVIA iPLA2; details: cited from earlier work; for GVIA iPLA2 XI(50): radioactivity-based assay
[5] = system: β-cell; details: cited from earlier work

IC50 [1]: 950 nM | GIVA cPLA2 XI(50) [1]: 0.0019 mole fraction
Structure (SMILES): CCC[C@@H]1OC(=O)[C@@H]1CCCc1ccccc1 (racemic) [cis-9d, cis-(±)-3-(3-Phenylpropyl)-4-propyloxetan-2-one]

IC50 [1]: 20 nM | times more potent for GIVA cPLA2 than for GVIA iPLA2 ([1]; GIVA cPLA2 over GVIA iPLA2): ~1000 times | GIVA cPLA2 XI(50) [1]: 0.00004 mole fraction | IC50 [2]: 20000 nM
Structure (SMILES): CCC[C@@H]1OC(=O)[C@@H]1CCCc1ccc(OC)cc1 (racemic) [cis-9f, cis-(±)-3-(3-(4-Methoxyphenyl)propyl)-4-propyloxetan-2-one]

IC50 [2]: 1000 nM
Structure (SMILES): CCC[C@@H]1OC(=O)[C@@H]1CCCCc1ccc2ccccc2c1 (racemic) [cis-9j, cis-(±)-3-(4-(Naphthalen-2-yl)butyl)-4-propyloxetan-2-one]

IC50 [2]: 95 nM
Structure (SMILES): CCC[C@H]1OC(=O)[C@@H]1CCCc1ccccc1 (racemic) [trans-9d, trans-(±)-3-(3-Phenylpropyl)-4-propyloxetan-2-one]

IC50 [2]: 150 nM
Structure (SMILES): CCC[C@H]1OC(=O)[C@@H]1CCCc1ccc2ccccc2c1 (racemic) [trans-9e, trans-(±)-3-(3-(Naphthalen-2-yl)propyl)-4-propyloxetan-2-one]

IC50 [2]: 95 nM
Structure (SMILES): CCC[C@H]1OC(=O)[C@@H]1CCCc1ccc(OC)cc1 (racemic) [trans-9f, trans-(±)-3-(3-(4-Methoxyphenyl)propyl)-4-propyloxetan-2-one]

GIVA cPLA2 XI(50) [1]: 0.042 mole fraction | times more active against GVIA iPLA2 than GIVA cPLA2 (selectivity) ([2]; GVIA iPLA2 over GIVA cPLA2): 22,000 times | potency on GVIA iPLA2 relative to FKGK18 ([2]; compared with fluoroketone FKGK18): a hundred times more potent
Structure (SMILES): CCC[C@H]1OC(=O)[C@@H]1CCCCc1ccccc1 (racemic) [trans-9k, trans-(±)-3-(4-Phenylbutyl)-4-propyloxetan-2-one]
inhibition (decrease) of cytokine-induced β-cell apoptosis ([3]; 0.10 μM, co-treatment with IL-1β + IFNγ, 16 h): minimal and non-significant effect | cytotoxicity on continuous exposure, compound alone ([3]; 0.10 or 1.0 μM, no cytokines): not cytotoxic

Structure (SMILES): O=C(CCCCc1ccccc1)C(F)(F)C(F)(F)F [2a]
GVIA iPLA2 XI(50) ([4]; listed as FKGK11): 0.0014 mole fraction

Structure (SMILES): COc1ccc(CCCCC(=O)C(F)(F)C(F)(F)F)cc1 [2b]
GVIA iPLA2 XI(50) ([4]; listed as GK187): 0.0001 mole fraction

Structure (SMILES): O=C(CCCCc1ccc2ccccc2c1)C(F)(F)F [compound 3]
inhibition of β-cell apoptosis [5]: able to inhibit β-cell apoptosis | times more potent for GVIA iPLA2 than for GIVA cPLA2 [4]: 195 times | times more potent for GVIA iPLA2 than for GV sPLA2 [4]: > 455 times

Structure (SMILES): COc1ccc(CCSCC(=O)c2noc(C(C)(C)C)n2)cc1 [compound 4]
GVIA iPLA2 XI(50) [4]: 0.0057 mole fraction
